In patent US11459312B2, “Sulphur substituted 3-oxo-2,3-dihydropyridazine-4-carboxamides” (Bayer Aktiengesellschaft, priority 2017, dated 2022) one finds IC50 data, which are given here for one compound.

Test [1] deals with T1, AHR (Homo sapiens, UniProt P35869).
T1 sequence (P35869 11-848): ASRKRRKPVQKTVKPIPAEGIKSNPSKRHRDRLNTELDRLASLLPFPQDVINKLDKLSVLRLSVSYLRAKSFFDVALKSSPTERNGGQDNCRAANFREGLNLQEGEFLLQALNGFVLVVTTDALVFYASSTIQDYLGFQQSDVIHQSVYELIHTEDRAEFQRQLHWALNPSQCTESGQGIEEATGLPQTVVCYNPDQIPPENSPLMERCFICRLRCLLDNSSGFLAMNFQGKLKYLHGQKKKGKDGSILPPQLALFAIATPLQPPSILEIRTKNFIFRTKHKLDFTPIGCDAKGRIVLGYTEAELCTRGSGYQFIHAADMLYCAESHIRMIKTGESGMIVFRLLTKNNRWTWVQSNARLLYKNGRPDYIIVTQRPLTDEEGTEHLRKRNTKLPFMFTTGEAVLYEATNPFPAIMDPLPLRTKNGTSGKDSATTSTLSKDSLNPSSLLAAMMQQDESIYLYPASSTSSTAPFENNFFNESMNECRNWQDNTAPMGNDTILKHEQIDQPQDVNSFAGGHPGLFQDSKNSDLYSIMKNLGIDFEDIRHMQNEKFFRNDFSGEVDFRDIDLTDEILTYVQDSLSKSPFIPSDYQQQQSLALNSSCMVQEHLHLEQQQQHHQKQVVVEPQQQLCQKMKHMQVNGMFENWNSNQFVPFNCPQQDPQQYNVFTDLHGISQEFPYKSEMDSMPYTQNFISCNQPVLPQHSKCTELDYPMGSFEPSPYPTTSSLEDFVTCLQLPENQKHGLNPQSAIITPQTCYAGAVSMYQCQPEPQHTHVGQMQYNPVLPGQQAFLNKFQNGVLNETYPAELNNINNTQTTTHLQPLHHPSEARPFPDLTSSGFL
The test is described as follows: In vitro assay 3: AHR-regulated CYP1A1 expression in human cell line (U937, quantitative PCR). The following applies: human monocytic U937 cells, CYP1A1 expression induced with 200 μM KA, 6 hours, qPCR; read-out: Assay 3: Hum CYP1A1 Antagonism IC50. It counts as cell-based. The procedure:
In Vitro Assay 3: AHR-Regulated CYP1A1 Expression in Human Cell Line
To assess the AHR inhibitory activity of the substances described in this application, the ability thereof to antagonize ligand-induced AHR gene regulation in a dose-dependent manner was quantified. For this purpose, quantitative PCR analysis was used to determine expression of the AHR-regulated gene CYP1A1 in a human monocytic U937 cell line upon stimulation with 200 μM KA in the presence and absence of AHR inhibitor. U937 cells were sown at a concentration of 2×10^5 cells/well in 100 μl of growth medium (RPMI 1640, 20% FCS) in 96-well microtitre plates. CYP1A1 expression was induced with 200 μM KA (positive control) in the presence or absence of the substances for 6 hours. Human U937 cells were typically incubated with eight different concentrations of the substances (1 nM, 3 nM, 10 nM, 30 nM, 100 nM, 300 nM, 1 μM and 3 μM) and analyzed in duplicate on the same microtitre plate. After stimulation, cells were lysed with Nucleic Acid Lysis Solution (#4305895, Applied Biosystems) and RNA was isolated using the 6100 Nucleic Acid Preparation Station (Applied Biosystems) and reverse-transcribed to cDNA using SuperScript VILO cDNA synthesis kit (#11754-250, Invitrogen). Unstimulated cells were used as the negative control. Taqman probes for human CYP1A1 (Hs01054797_g1) and human HPRT (Hs02800695_m1) were used to analyze fold expression of CYP1A1 of HPRT. Quantitation was performed on a Taqman SDS7900HT.
(In general: Real-time PCR tracks product formation cycle by cycle.)

For test [2], the target named is T1, AHR. The test is described as follows: In vitro assay 1: AHR-luc transactivation assay, antagonism in human cell line (U87 glioblastoma cells, kynurenic acid prestimulated). In kind it is cell-based. Set-up: U87 glioblastoma cells (ATCC) endogenously expressing AHR; host or cells: U87 glioblastoma cells, stably transfected with DRE-firefly luciferase and renilla reporter constructs only. The following applies: firefly luciferase DRE reporter, 150 μM kynurenic acid, 20 hours, read-out: Assay 1: AHR-luc Hum Antagonism IC50.

With `O=C(N[C@@H]1CS(=O)(=O)C[C@@H]1O)c1cc(-c2ccc(C(F)(F)F)cc2)nn(-c2cccc(F)c2)c1=O` (single isomer, unassigned) [Example 15, (−)-2-(3-fluorophenyl)-N-[(cis)-4-hydroxy-1,1-dioxidotetrahydro-thiophen-3-yl]-3-oxo-6-[4-(trifluoromethyl)phenyl]-2,3-dihydropyridazine-4-carboxamide], the concentration for half-maximal inhibition (IC50) (usually the midpoint of a concentration-inhibition curve) at AHR [1] was found to be 0.0369 µM; at AHR [2], 0.0177 µM.
